Source: ChEMBL document CHEMBL1201862, “PubChem BioAssay data set” (2004)
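Compound exposure: 48 hours, 5 concentrations, 96-well plates. GI50 marks 50% less growth.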 The source made the active and inactive calls. No stated cut-off is given here; in the data, active = GI50 up to about 1.1 µM and inactive = higher.

Tests used:
Test in all cases: NCI anticancer screen, dose series, 48 h
[1] = system: A549
[2] = system: SK-MEL-5
[3] = system: SN12C
[4] = system: K562
[5] = system: M14
[6] = system: SK-MEL-2
[7] = system: UACC-257
[8] = system: SK-OV-3
[9] = system: ACHN
[10] = system: UO-31
[11] = system: IGROV-1
[12] = system: PC-3
[13] = system: U-251
[14] = system: UACC-62
[15] = system: SF-268
[16] = system: OVCAR-5
[17] = system: KM12
[18] = system: HCC 2998
[19] = system: SNB-75
[20] = system: SR

Measured: GI50

CC(C)CCC[C@@H](C)[C@H]1CCC2C3CC=C4C[C@@H](Oc5c6ccccc6nc6ccccc56)CCC4C3CCC21 (some centres not stated)
inactive: [1] > 50 µM | [2] > 50 µM | [3] > 50 µM | [4] > 50 µM | [5] > 50 µM | [6] > 50 µM | [7] > 50 µM | [8] > 50 µM | [9] > 50 µM | [10] 25.6 µM | [11] > 50 µM | [12] > 50 µM | [13] > 50 µM | [14] > 50 µM | [15] > 50 µM | [16] > 50 µM | [17] > 50 µM

Oc1ncnc2c1CCCN2
inactive: [1] > 100 µM | [18] > 100 µM | [2] > 100 µM | [3] > 100 µM | [4] > 100 µM | [5] > 100 µM | [6] > 100 µM | [7] > 100 µM | [8] > 100 µM | [9] > 100 µM | [10] > 100 µM | [11] > 100 µM | [19] > 100 µM | [13] > 100 µM | [14] > 100 µM | [15] > 100 µM | [20] > 100 µM | [16] > 100 µM | [17] > 100 µM

CN1CCCCC(C(O)(c2ccccc2)c2ccccc2)C1=O (configuration not stated)
inactive: [1] > 100 µM | [18] > 100 µM | [2] > 100 µM | [3] > 100 µM | [4] > 100 µM | [5] > 100 µM | [6] > 100 µM | [7] > 100 µM | [8] > 100 µM | [9] > 100 µM | [10] > 100 µM | [11] > 100 µM | [19] > 100 µM | [13] > 100 µM | [14] > 100 µM | [15] > 100 µM | [20] > 100 µM | [16] > 100 µM | [17] > 100 µM

O=C1N/C(=N/N=C/C(O)C(O)C(O)C(O)CO)N/C1=C\c1ccco1 (configuration not stated)
inactive: [1] > 100 µM | [2] > 100 µM | [3] > 100 µM | [4] > 100 µM | [5] > 100 µM | [6] 93.8 µM | [7] > 100 µM | [8] > 100 µM | [9] > 100 µM | [11] > 100 µM | [12] 32.3 µM | [19] > 100 µM | [13] 89.7 µM | [14] > 100 µM | [15] > 100 µM | [16] > 100 µM | [17] > 100 µM
